Marks after values point to notes of the source that are not given here.
How the values were obtained:
[1] = test system: platelets (platelet rich plasma); experiment: Inhibition of platelet aggregation (aggregometer, platelet rich plasma); format: cell-based; conditions: for Extent of aggregation as a percentage amplitude, 1 μg/mL collagen: agonist 1 μg/mL collagen; for Extent of aggregation as a percentage amplitude, 4 μM ADP: agonist 4 μM ADP; for Extent of aggregation as a percentage amplitude, 5 μg/mL collagen: agonist 5 μg/mL collagen; for Extent of aggregation as a percentage amplitude, 12 μM TRAP: agonist 12 μM TRAP
Experimental: Platelet rich plasma (PRP) was obtained by drawing whole blood into sodium citrate tubes (3.2%) and centrifuging at 700 rpm for 10 minutes. Platelet poor plasma (PPP) was obtained by centrifuging the remainder of the sample ntil the platelets were removed (3200 rpm for 10 minutes). The PRP was adjusted to a count of 280×10^9/L using a mixture of PRP and PPP. The incubation mixture consisted of 200 μL of platelets and 25 μL of the appropriate compound (18 mM stock for a final concentration of 2 mM and 4.5 mM stock for a final concentration of 500 μM), rendering an approximate final platelet count in the incubation mixture of 250×10^9/L. After incubation (30 minutes at room temperature, the cuvettes were incubated for 3 minutes at 37° C., transferred to the mixing wells and after the baselines transmittances were measured in an aggregometer (Chrono-Log 4), 25 μL of agonist was added to give a final concentration of 4 μM ADP, 1 μg/mL collagen, 5 μg/mL collagen or 12 μM thrombin receptor activating peptide (TRAP). Final transmittances were then measured in the aggregometer (lower percent transmittance represents higher aggregation). […] Table 24-1 gives the results of the extent of aggregation for several compounds as percentage amplitude read directly from the aggregometer.

[2] = test system: Male Wistar rats, embolic focal cerebral ischemia (MCA); experiment: Neuroprotection in rat embolic stroke model; format: in vivo; conditions: for infarction volume: 48 h, mean±SEM; for Hemorrhage rate / Mortality rate (pre-mature death) / Seizure occurrence: n=10; for Neurological deficits (modified Bederson score): median (25-75th percentile)
Excerpt: Male Wistar rats, weighting 300-350 g, were purchased from Charles River, St. Constant, Canada. Embolic focal cerebral ischemia was induced by embolizing a preformed clot into the middle cerebral artery (MCA). (For details of the procedure see Wang C X, Yang Y, Shuaib A. A focal embolic model of cerebral ischemia in rats. Brain Res. Protoc. 7:115-120, 2001. Wang C, Yang T and Shuaib A: An improved version of embolic model of brain ischemic injury in the rat. J. Neurosci. Meth. 109:147-151, 2001).
The study consisted of four groups (n=10). Animals were randomly assigned to one of the four groups. Treatments were started at 1 h after MCA occlusion. […] In the control group, 0.5% DMSO (1.5 ml) was infused.
The procedure for assessment of infarct volume were detailed previously (Bederson J B, Pitts L H, Tsuji M, Nishimura M C, Davis R L, Bartkowski H. Rat middle cerebral artery occlusion: evaluation of the model and development of a neurologic examination. Stroke 17:472-476, 1986. Yang, Y., Shuaib, A., and Li, Q. Quantification of infarct size on focal cerebral ischemia model of rats using a simple and economical method. J. Neurosci. Meth., 84:9-16, 1998). Briefly, at 48 h after ischemia the anesthetized animal was sacrificed by decapitation and the brain removed. The volume of infarction was measured in the brain sections stained with 2,3,5-triphenyltetrazolium chloride (TTC) solution with following formula, corrected infarct size=the volume of the left hemisphere−(the volume of the right hemisphere-measured infarct volume). The percentage of infarct volume was obtained by calculating the portion of the corrected infarct volume and dividing it by the total volume of the left hemisphere. Brain swelling was determined using a formula: swelling (edema)=(volume of the right hemisphere[…])/volume of the left hemisphere. Hemorrhage transformation was identified from the TTC stain brain sections.
Neurological deficits and seizure activities were recorded at 2, 24 and 48 hours after embolization. Neurological deficits were determined using a modified Bederson's scoring system (Bederson J B, Pitts L H, Tsuji M, Nishimura M C, Davis R L, Bartkowski H. Rat middle cerebral artery occlusion: evaluation of the model and development of a neurologic examination. Stroke (17:472-476, 1986). 0: no observable deficit; 1: forelimb flexion; 2: forelimb flexion plus decreased resistance to lateral push; 3: unidirectional circling; 4: unidirectional circling plus decreased level of consciousness. Seizure activity, hemorrhage and mortality were also recorded. […]. Results are shown in Table 25-1
The differences of infarction volume were analyzed with one way ANOVA followed by Dunnett's test. Neurological deficit scores were reported as medians and interquartile ranges, considering 25-75th percentile. The neurological scores were analyzed with Kruskal-Wallis test when more than two groups, and analyzed with Mann-Whitney test when comparison was done in two groups. The rates of mortality and seizure occurrence following different treatments were compared with Chi-square test. Differences were considered significant when p<0.05.

## Cc1ncc(CNc2ccc(-c3ccc(C(=N)N)cc3)cc2)c(CO)c1O [Compound XL]
[1]; compound 500 μM
  Extent of aggregation as a percentage amplitude, 1 μg/mL collagen: 4%
  Extent of aggregation as a percentage amplitude, 4 μM ADP: 9%
  Extent of aggregation as a percentage amplitude, 5 μg/mL collagen: 52%
  Extent of aggregation as a percentage amplitude, 12 μM TRAP: 3%
[1]; compound 2 mM
  Extent of aggregation as a percentage amplitude, 1 μg/mL collagen: 4%
  Extent of aggregation as a percentage amplitude, 4 μM ADP: 4%
  Extent of aggregation as a percentage amplitude, 5 μg/mL collagen: 5%
  Extent of aggregation as a percentage amplitude, 12 μM TRAP: 4%
[2]; 10 mg/kg at 1 h after embolization, control 40±2.6%
  infarction volume: 30.5±4.8%
[2]; 10 mg/kg group, control 1 rat
  Hemorrhage rate: 2 rats
  Mortality rate (pre-mature death): 1
[2]; 10 mg/kg group, control 2 rats
  Seizure occurrence: 3 rats
[2]; 10 mg/kg, control 5.7±1.3
  Ischemic brain edema: 6.8±1.9
[2]; 10 mg, 2 h after injury
  Neurological deficits (modified Bederson score): 3 (3-3)
[2]; 10 mg, 24 h after injury
  Neurological deficits (modified Bederson score): 2 (2-3)*
[2]; 10 mg, 48 h after injury
  Neurological deficits (modified Bederson score): 2 (2-3)*
[2]; 20 mg/kg
  Ischemic brain edema: 5.9±1.3
[2]; 20 mg/kg at 1 h after embolization
  infarction volume: 26.5±4.4%
[2]; 20 mg/kg group
  Hemorrhage rate: 1 rat
  Mortality rate (pre-mature death): 1
  Seizure occurrence: 2 rats
[2]; 20 mg, 2 h after injury
  Neurological deficits (modified Bederson score): 3 (3-3)
[2]; 20 mg, 24 h after injury
  Neurological deficits (modified Bederson score): 2 (2-3)*
[2]; 20 mg, 48 h after injury
  Neurological deficits (modified Bederson score): 2 (2-3)*
[2]; 40 mg/kg
  Ischemic brain edema: 7.9±2.1
[2]; 40 mg/kg at 1 h after embolization
  infarction volume: 25.9±3.4%
[2]; 40 mg/kg group
  Hemorrhage rate: 2 rats
  Seizure occurrence: 2 rats
[2]; 40 mg, 2 h after injury
  Neurological deficits (modified Bederson score): 3 (3-3)
[2]; 40 mg, 24 h after injury
  Neurological deficits (modified Bederson score): 2 (2-3)*
[2]; 40 mg, 48 h after injury
  Neurological deficits (modified Bederson score): 2.5 (2-2)*
